Assay results taken from patent publication US9149478B2, “Diabetes therapy” (Boehringer Ingelheim International GmbH, priority 2010, dated 2015).

Legend:
[1] = test system: non-obese-diabetic (NOD) mice; experiment: Onset of diabetes and stereological pancreas assessment in NOD mice over 60 days; format: in vivo, mouse; conditions: female NOD mice
Excerpt: Though reduced pancreatic T-cell migration and altered cytokine production is considered important players for the onset of insulinitis the exact mechanism and effects on the pancreatic cell pool is still incompletely understood.
Bi-weekly plasma samples are obtained to determine onset of diabetes (BG>11 mmol/l).

[2] = Pharmacokinetic profile of linagliptin (general statement); conditions: in vivo
[3] = Safety and tolerability in people with type 2 diabetes
[4] = Pharmacokinetics of BI 1356 after multiple oral doses once daily for 12 days in patients with type 2 diabetes; conditions: for feτ,ss: steady state (Day 12); for feτ,ss / fe0-24: gMean (gCV); for fe0-24: fraction excreted in urine
[5] = in vivo; cited from earlier work

| half-life [2] | feτ,ss ([4]; 1 mg oral once daily) | feτ,ss ([4]; 2.5 mg oral once daily) | fe0-24 ([4]; 2.5 mg oral once daily) | feτ,ss ([4]; 5 mg oral once daily) | fe0-24 ([4]; 5 mg oral once daily) | feτ,ss ([4]; 10 mg oral once daily) | fe0-24 ([4]; 10 mg oral once daily) | mean accumulation ratio RA,AUC ([4]; doses above 1 mg, oral once daily) | excreted via the kidney ([4]; therapeutic oral dose levels) | Molecule | incidence of diabetes (BG>11 mmol/l) at the end of the study period ([1]; 0.083 g linagliptin/kg chow (3-10 mg/kg p.o.), 60 days) | beta cell mass (insulin immunoreactivity) ([1]; linagliptin in chow, 60 days, stereology) | active plasma GLP-1 at termination ([1]; linagliptin in chow, versus control) | safety and tolerability [3] | route of excretion ([4]; therapeutic oral dose levels) | duration of action [5] |
| --- | --- | --- | --- | --- | --- | --- | --- | --- | --- | --- | --- | --- | --- | --- | --- | --- |
| ≤ 72 h | 3.34 (38.3) % | 3.06 (45.1) % | 0.139 (51.2) % | 6.27 (42.2) % | 0.453 (125) % | 3.22 (34.2) % | 0.919 (115) % | ≤ 1.4 | < 7 % of the administered oral dose | CC#CCn1c(N2CCC[C@@H](N)C2)nc2c1c(=O)n(Cc1nc(C)c3ccccc3n1)c(=O)n2C [BI 1356, 1-[(4-methyl-quinazolin-2-yl)methyl]-3-methyl-7-(2-butyn-1-yl)-8-(3-(R)-amino-piperidin-1-yl)-xanthine] | 9 out of 30 | 0.48 ± 0.09 mg | higher | placebo-like safety and tolerability | primarily excreted unchanged via the bile |  |
|  |  |  |  |  |  |  |  |  |  | N^εB29-(N^α-(ω-carboxypentadecanoyl)-L-γ-glutamyl) des(B30) human insulin [Insulin degludec] |  |  |  |  |  | more than 24 hours |
